# Compound: CCN1CCN(c2ccc(Nc3cc(N(C)C(=O)Nc4c(Cl)c(OC)cc(OC)c4Cl)ncn3)cc2)CC1 [BGJ398] + CS(=O)(=O)N1CCN(Cc2cc3nc(-c4cccc5[nH]ncc45)nc(N4CCOCC4)c3s2)CC1 [Pictilisib] (partner 1 µM)
# Test: relative viability (nuclei count vs DMSO), 5 days (fraction); higher = more cells survive
# Settings: first compound 0.01 µM
# Outline: (§1)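 Lung cancer cell lines were seeded in 1536-well plates and dosed by pin tool the next day, with either a single drug or a fixed anchor-drug dose combined with five library-drug doses (not always all listed) spaced in √10 steps. Five days later, one step fixed the cells and stained their nuclei (final 0.05% Triton X-100, 1% formaldehyde, 1 ug/ml Hoechst), and nuclei were counted on 4× images. Relative viability is the nuclei count in treated wells divided by the count in vehicle wells, and each value is the median of duplicate plates.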
row,Cell Line,relative viability
1,NCI-H596,0.367
2,LK-2,0.555
3,NCI-H2087,0.669
4,SK-MES-1,0.401
5,H3255,0.484
6,COR-L23,0.691
7,COR-L 105,0.314
8,IA-LM,0.343
9,LOU-NH91,0.515
10,ChaGo-K-1,0.802
11,NCI-H2170,0.348
12,A549,0.486
13,NCI-H2009,0.803
14,NCI-H661,0.361
15,SK-LU-1,0.547
16,NCI-H1299,0.742
17,CAL-12T,0.423
18,NCI-H2228,0.342
19,NCI-H2023,0.226
20,NCI-H1563,0.66

# Same assay, conditions: first compound 0.03162 µM
row,Cell Line,relative viability
1,NCI-H727,0.504
2,NCI-H1650,0.394
3,EBC-1,0.414
4,NCI-H1703,0.198
5,NCI-H1993,0.766
6,SW 1573,0.486
7,NCI-H838,0.393
8,LCLC-103H,0.576
9,NCI-H520,0.257
10,NCI-H2126,0.461
11,EMC-BAC-2,0.561
12,NCI-H2085,0.44
13,Calu-6,0.987
14,HCC-366,0.146
15,NCI-H1666,0.461
16,NCI-H596,0.416
17,LK-2,0.529
18,NCI-H2087,0.994

row,Cell Line,relative viability
1,SK-MES-1,0.415
2,H3255,0.138
3,COR-L23,0.826
4,COR-L 105,0.442
5,IA-LM,0.39
6,LOU-NH91,0.524
7,ChaGo-K-1,0.702
8,NCI-H2170,0.279
9,A549,0.475
10,NCI-H2009,0.955
11,NCI-H661,0.46
12,SK-LU-1,0.61
13,NCI-H1299,0.807
14,CAL-12T,0.441
15,NCI-H2228,0.56
16,NCI-H2023,0.219
17,NCI-H1563,0.612

# Same assay, conditions: first compound 0.1 µM
row,Cell Line,relative viability
1,NCI-H727,0.176
2,NCI-H1650,0.416
3,EBC-1,0.357
4,NCI-H1703,0.21
5,NCI-H1993,0.722
6,SW 1573,0.495
7,NCI-H838,0.417
8,LCLC-103H,0.486
9,NCI-H520,0.209
10,NCI-H2126,0.52
11,EMC-BAC-2,0.513
12,NCI-H2085,0.372
13,Calu-6,0.935
14,HCC-366,0.137
15,NCI-H1666,0.536
16,NCI-H596,0.355
17,LK-2,0.326
18,NCI-H2087,0.966

row,Cell Line,relative viability
1,SK-MES-1,0.431
2,H3255,0.462
3,COR-L23,0.788
4,COR-L 105,0.417
5,IA-LM,0.334
6,LOU-NH91,0.52
7,ChaGo-K-1,0.561
8,NCI-H2170,0.311
9,A549,0.453
10,NCI-H2009,0.731
11,NCI-H661,0.388
12,SK-LU-1,0.497
13,NCI-H1299,0.847
14,CAL-12T,0.532
15,NCI-H2228,0.531
16,NCI-H2023,0.173
17,NCI-H1563,0.512

# Same assay, conditions: first compound 0.3162 µM
row,Cell Line,relative viability
1,NCI-H727,0.316
2,NCI-H1650,0.153
3,EBC-1,0.515
4,NCI-H1703,0.218
5,NCI-H1993,0.82
6,SW 1573,0.438
7,NCI-H838,0.338
8,LCLC-103H,0.52
9,NCI-H520,0.169
10,NCI-H2126,0.495
11,EMC-BAC-2,0.476
12,NCI-H2085,0.508
13,Calu-6,0.898
14,HCC-366,0.277
15,NCI-H1666,0.374
16,NCI-H596,0.389
17,LK-2,0.235
18,NCI-H2087,0.85

row,Cell Line,relative viability
1,SK-MES-1,0.383
2,H3255,0.344
3,COR-L23,0.808
4,COR-L 105,0.328
5,IA-LM,0.391
6,LOU-NH91,0.484
7,ChaGo-K-1,0.608
8,NCI-H2170,0.287
9,A549,0.535
10,NCI-H2009,0.842
11,NCI-H661,0.382
12,SK-LU-1,0.531
13,NCI-H1299,0.827
14,CAL-12T,0.409
15,NCI-H2228,0.484
16,NCI-H2023,0.244
17,NCI-H1563,0.479

# Same assay, conditions: first compound 1 µM
row,Cell Line,relative viability
1,NCI-H727,0.293
2,NCI-H1650,0.316
3,EBC-1,0.451
4,NCI-H1703,0.242
5,NCI-H1993,0.685
6,SW 1573,0.611
7,NCI-H838,0.277
8,LCLC-103H,0.465
9,NCI-H520,0.194
10,NCI-H2126,0.418
11,EMC-BAC-2,0.465
12,NCI-H2085,0.394
13,Calu-6,0.991
14,HCC-366,0.0758
15,NCI-H1666,0.329
16,NCI-H596,0.321
17,LK-2,0.245
18,NCI-H2087,1.08

row,Cell Line,relative viability
1,SK-MES-1,0.335
2,H3255,0.506
3,COR-L23,0.87
4,COR-L 105,0.387
5,IA-LM,0.311
6,LOU-NH91,0.453
7,ChaGo-K-1,0.314
8,NCI-H2170,0.288
9,A549,0.596
10,NCI-H2009,0.847
11,NCI-H661,0.348
12,SK-LU-1,0.424
13,NCI-H1299,0.965
14,CAL-12T,0.342
15,NCI-H2228,0.365
16,NCI-H2023,0.16
17,NCI-H1563,0.475

# Compound: CCN1CCN(c2ccc(Nc3cc(N(C)C(=O)Nc4c(Cl)c(OC)cc(OC)c4Cl)ncn3)cc2)CC1 [BGJ398] + Nc1ncn([C@H]2C[C@H](O)[C@@H](CO)O2)c(=O)n1 [Decitabine] (partner 2 µM)
# Test: as above
# Settings: first compound 0.01 µM
# Outline: as §1
row,Cell Line,relative viability
1,NCI-H522,0.665
2,NCI-H727,0.859
3,NCI-H1650,0.451
4,NCI-H1993,0.59
5,SW 1573,0.501
6,NCI-H838,0.389
7,LCLC-103H,0.714
8,NCI-H520,0.538
9,NCI-H2126,0.608
10,EMC-BAC-2,0.96
11,NCI-H2085,0.528
12,HCC-366,0.336
13,NCI-H1666,0.634
14,NCI-H596,1.15
15,LK-2,0.234
16,NCI-H2087,0.178

row,Cell Line,relative viability
1,NCI-H2342,0.725
2,SK-MES-1,0.377
3,H3255,0.585
4,COR-L23,0.36
5,COR-L 105,0.636
6,LOU-NH91,0.837
7,ChaGo-K-1,0.503
8,NCI-H2170,0.434
9,A549,0.155
10,SW 900,0.447
11,NCI-H1648,0.571
12,NCI-H2009,0.358
13,NCI-H661,0.51
14,SK-LU-1,0.62
15,NCI-H2023,0.197

# Same assay, conditions: first compound 0.03162 µM
row,Cell Line,relative viability
1,NCI-H522,0.625
2,NCI-H727,0.862
3,NCI-H1650,0.424
4,NCI-H1993,0.624
5,SW 1573,0.557
6,NCI-H838,0.463
7,LCLC-103H,0.631
8,NCI-H520,0.436
9,NCI-H2126,0.601
10,EMC-BAC-2,1.03
11,NCI-H2085,0.578
12,HCC-366,0.371
13,NCI-H1666,0.763
14,NCI-H596,0.885
15,LK-2,0.262
16,NCI-H2087,0.288
17,NCI-H2342,0.808
18,SK-MES-1,0.345
19,COR-L23,0.438
20,COR-L 105,0.587
21,LOU-NH91,0.676
22,ChaGo-K-1,0.477
23,NCI-H2170,0.453
24,A549,0.288
25,SW 900,0.421
26,NCI-H2009,0.371
27,NCI-H661,0.491
28,SK-LU-1,0.572
29,NCI-H2023,0.226

# Same assay, conditions: first compound 0.1 µM
row,Cell Line,relative viability
1,NCI-H522,0.685
2,NCI-H727,0.965
3,NCI-H1650,0.411
4,NCI-H1993,0.582
5,SW 1573,0.478
6,NCI-H838,0.552
7,LCLC-103H,0.67
8,NCI-H520,0.397
9,NCI-H2126,0.611
10,EMC-BAC-2,0.97
11,NCI-H2085,0.544
12,HCC-366,0.355
13,NCI-H1666,0.814
14,NCI-H596,0.977
15,LK-2,0.222
16,NCI-H2087,0.263

row,Cell Line,relative viability
1,NCI-H2342,0.714
2,SK-MES-1,0.41
3,H3255,0.591
4,COR-L23,0.507
5,COR-L 105,0.637
6,LOU-NH91,0.813
7,ChaGo-K-1,0.562
8,NCI-H2170,0.466
9,A549,0.232
10,SW 900,0.371
11,NCI-H1648,0.511
12,NCI-H2009,0.399
13,NCI-H661,0.61
14,SK-LU-1,0.761
15,NCI-H2023,0.23

# Same assay, conditions: first compound 0.3162 µM
row,Cell Line,relative viability
1,NCI-H522,0.665
2,NCI-H727,0.862
3,NCI-H1650,0.415
4,NCI-H1993,0.696
5,SW 1573,0.498
6,NCI-H838,0.463
7,LCLC-103H,0.628
8,NCI-H520,0.242
9,NCI-H2126,0.612
10,EMC-BAC-2,0.915
11,NCI-H2085,0.535
12,HCC-366,0.306
13,NCI-H1666,0.68
14,NCI-H596,0.991
15,LK-2,0.157
16,NCI-H2087,0.325
17,NCI-H2342,0.758
18,SK-MES-1,0.349
19,COR-L23,0.42
20,COR-L 105,0.601
21,LOU-NH91,0.649
22,ChaGo-K-1,0.558
23,NCI-H2170,0.456
24,A549,0.289
25,SW 900,0.469
26,NCI-H1648,0.476
27,NCI-H2009,0.425
28,NCI-H661,0.55
29,SK-LU-1,0.527
30,NCI-H2023,0.218

# Same assay, conditions: first compound 1 µM
row,Cell Line,relative viability
1,NCI-H522,0.644
2,NCI-H727,0.669
3,NCI-H1650,0.361
4,NCI-H1993,0.576
5,SW 1573,0.466
6,NCI-H838,0.378
7,LCLC-103H,0.566
8,NCI-H520,0.295
9,NCI-H2126,0.566
10,EMC-BAC-2,0.932
11,NCI-H2085,0.547
12,HCC-366,0.347
13,NCI-H1666,0.506
14,NCI-H596,0.778
15,LK-2,0.137
16,NCI-H2087,0.234

row,Cell Line,relative viability
1,NCI-H2342,0.815
2,SK-MES-1,0.321
3,H3255,0.681
4,COR-L23,0.365
5,COR-L 105,0.69
6,LOU-NH91,0.821
7,ChaGo-K-1,0.537
8,NCI-H2170,0.499
9,A549,0.223
10,SW 900,0.43
11,NCI-H1648,0.402
12,NCI-H2009,0.361
13,NCI-H661,0.529
14,SK-LU-1,0.584
15,NCI-H2023,0.211

# Source: the supplement of paper PMC10307832
